# Results reported in US4997816A, “Induction of fertile ovulation in anoestruns mares” (The University of Melbourne, priority 1985, dated 1991).
# “And” between values parts separate entries of the source, which are not always exact repeats. Equal values may be shown once. Read-outs that look alike come from different tables or passages of the source.
# Experiments:
# Type in all cases: in vivo, mare
# [1] = system: maiden Standardbred mares in deep winter anoestrus; assay: Example III: 28-day subcutaneous GnRH infusion by osmotic minipump, induction of ovulation (1985); details: for Proportion mares ovulating: deep anoestrus; for Proportion mares ovulating / Percentage mares ovulating: 1985
# From the text: Delivery of GnRH was achieved via osmotic minipumps (OMP; Alza Corp., Palo Alto, CA:). These pumps are constructed of a rigid, semi-permeable membrane, inside which is suspended a water-proof bag which is filled with the substance to be infused. The neck of the bag is open to the atmosphere. Between the bag and the membrane a special osmotic solution is held. This solution causes an influx of water through the semi-permeable membrane when the OMP is placed in the body of animals. The influx of water collapses the bag at a fixed rate and the substance contained in the bag is expelled from the OMP at a steady rate. […] Sixteen maiden Standardbred mares, 3 to 6 years of age were used in the experiment which was conducted during deep winter anoestrus in 1985. The mares were in good to excellent condition and were run in 2 outside paddocks during the period of the experiment. The mares were divided into 3 groups. Group C (n=5) were untreated and acted as a control group, while Group 50 (n=5) and Group 100 (n=6) received infusions of GnRH at rates of 50 ng/kg/h and 100 ng/kg/h, respectively. The GnRH was delivered via subcutaneously implanted OMP for 28 days, starting on July 2, 1985. Ovarian palpations and oestrus detection was carried out 3 times per week or daily when an ovarian follice of >3 cm diameter was detected.
# [2] = system: mares in transitional anoestrus; assay: Combined results, transitional anoestrus (1984 and 1985); details: 100 ng/kg/h
# Procedure: The experiment commenced on Sept. 10, 1984. Mares were randomised in pairs to a Treated group or a Control group until all the mares had been assigned to groups by Sept. 21. The mares were paired on the basis of each mare having approximately equal ovarian follicular activity. Each treated mare was weighted just prior to the experiment. The dose of GnRH (100 ng/kg/hr) to be administered over 28 days was calculated and dissolved in sterile, physiological (0.9%) saline. The solution was loaded into an OMP and placed in a beaker of saline at room temperature overnight to allow for the "start up time" of the OMP. The mares were divided into 2 groups. One group (n=g) was treated with an infusion of GnRH at a rate of 100 ng/kg/h delivered by subcutaneously implanted OMP for 28 days. The mares were run in paddocks during the experiment and brought into yards every 2 or 3 days, during which time oestrus detection was carried out. […] Blood samples were collected 3 times per week for determination of plasma LH and progesterone concentrations. Ultrasound echography was used to diagnose pregnancy 14 days after ovulation, and every 2 or 3 days thereafter until Day 45 of pregnancy, when the experiment was terminated.
# [3] = system: Standardbred mares in deep anoestrus; details: for Proportion mares ovulating: deep anoestrus; for Proportion mares ovulating / Percentage mares ovulating: 1984
# From the text: Delivery of GnRH was achieved via osmotic minipumps (OMP; Alza Corp., Palo Alto, CA:). These pumps are constructed of a rigid, semi-permeable membrane, inside which is suspended a water-proof bag which is filled with the substance to be infused. The neck of the bag is open to the atmosphere. Between the bag and the membrane a special osmotic solution is held. This solution causes an influx of water through the semi-permeable membrane when the OMP is placed in the body of animals. The influx of water collapses the bag at a fixed rate and the substance contained in the bag is expelled from the OMP at a steady rate. […] Fourteen Standardbred mares in deep anoestrus were divided into 3 groups. Group C (controls; n=5) received no treatment while Group 50 (n=5) and Group 100 (n=4) were given infusions of GnRH at rates of 50 ng/kg/h and 100 ng/kg/h respectively. The GnRH was administered via subcutaneously implanted osmotic minipumps (OMP) for 28 days. Blood samples were collected daily and ovarian palpation and oestrus detection was carried out 3 times per week or daily if a follicle >3.5 cm was detected.
# mares in deep anoestrus = assay: Combined results, deep anoestrus (1984 and 1985); details: 1984 and 1985 combined
# Procedure: Fourteen Standardbred mares in deep anoestrus were divided into 3 groups. Group C (controls; n=5) received no treatment while Group 50 (n=5) and Group 100 (n=4) were given infusions of GnRH at rates of 50 ng/kg/h and 100 ng/kg/h respectively. The GnRH was administered via subcutaneously implanted osmotic minipumps (OMP) for 28 days. Blood samples were collected daily and ovarian palpation and oestrus detection was carried out 3 times per week or daily if a follicle >3.5 cm was detected. The mares were divided into 3 groups. Group C (n=5) were untreated and acted as a control group, while Group 50 (n=5) and Group 100 (n=6) received infusions of GnRH at rates of 50 ng/kg/h and 100 ng/kg/h, respectively. The GnRH was delivered via subcutaneously implanted OMP for 28 days, starting on July 2, 1985. Ovarian palpations and oestrus detection was carried out 3 times per week or daily when an ovarian follice of >3 cm diameter was detected.
# [4] = system: Standardbred and Standardbred-type mares in transitional anoestrus
# From the text: Delivery of GnRH was achieved via osmotic minipumps (OMP; Alza Corp., Palo Alto, CA:). These pumps are constructed of a rigid, semi-permeable membrane, inside which is suspended a water-proof bag which is filled with the substance to be infused. The neck of the bag is open to the atmosphere. Between the bag and the membrane a special osmotic solution is held. This solution causes an influx of water through the semi-permeable membrane when the OMP is placed in the body of animals. The influx of water collapses the bag at a fixed rate and the substance contained in the bag is expelled from the OMP at a steady rate. […] Seventeen Standardbred and Standardbred-type mares 3 to 9 years of age were used in the experiment, which commenced on Oct. 2, 1985, when the mares were in transitional anoestrus. The mares were divided into 2 groups. One group (n=g) was treated with an infusion of GnRH at a rate of 100 ng/kg/h delivered by subcutaneously implanted OMP for 28 days. The mares were run in paddocks during the experiment and brought into yards every 2 or 3 days, during which time oestrus detection was carried out. […] Blood samples were collected 3 times per week for determination of plasma LH and progesterone concentrations. Ultrasound echography was used to diagnose pregnancy 14 days after ovulation, and every 2 or 3 days thereafter until Day 45 of pregnancy, when the experiment was terminated.
# [5] = system: Standardbred mares in transitional or "shallow" anoestrus
# From the text: Delivery of GnRH was achieved via osmotic minipumps (OMP; Alza Corp., Palo Alto, CA:). These pumps are constructed of a rigid, semi-permeable membrane, inside which is suspended a water-proof bag which is filled with the substance to be infused. The neck of the bag is open to the atmosphere. Between the bag and the membrane a special osmotic solution is held. This solution causes an influx of water through the semi-permeable membrane when the OMP is placed in the body of animals. The influx of water collapses the bag at a fixed rate and the substance contained in the bag is expelled from the OMP at a steady rate. […] Ten young Standardbred mares of 3 to 5 years of age as judged by wear of the teeth were used in the experiment. During the experiment, the mares were fed hay twice daily and kept in a paddock. The mares were vaccinated against Tetanus and Strangles and were given regular anthelmintic and lice treatments. Their body condition during the experiment was good to very good. Ovarian palpations were carried out and blood was collected from the mares every 2 or 3 days for 4 weeks prior to commencement of the experiment. […] The experiment commenced on Sept. 10, 1984. Mares were randomised in pairs to a Treated group or a Control group until all the mares had been assigned to groups by Sept. 21. The mares were paired on the basis of each mare having approximately equal ovarian follicular activity. Each treated mare was weighted just prior to the experiment. The dose of GnRH (100 ng/kg/hr) to be administered over 28 days was calculated and dissolved in sterile, physiological (0.9%) saline. The solution was loaded into an OMP and placed in a beaker of saline at room temperature overnight to allow for the "start up time" of the OMP. The OMP were inserted subcutaneously in the side of the necks of the treated mares, under local infiltration anaesthesia. The pumps were retained using 1 or 2 mattress sutures in the skin. After insertion of the OMP, the treated and control mares were run as a group in a single paddock. Every 2 or 3 days the mares were brought into the yards. Ovarian palpations were carried out and blood samples were collected on these days. In addition, the mares were teased with a vigorous stallion, to detect oestrus. […] Blood samples were assayed for lutsinizing hormone (LH) and progesterone concentrations. Ultrasound echography was used to diagnose pregnancy 14 days after ovulation. Subsequent ultrasound examinations were made every 2 or 3 days until Day 45 of pregnancy, when the experiment was terminated.
# [6] = Group 50, 50 ng/kg/h s.c. OMP 28 days
# [7] = Group 100, 100 ng/kg/h s.c. OMP 28 days
smiles,measurement,setting,value
"CC(C)C[C@H](NC(=O)CNC(=O)[C@H](Cc1ccc(O)cc1)NC(=O)[C@H](CO)NC(=O)[C@H](Cc1c[nH]c2ccccc12)NC(=O)[C@H](Cc1c[nH]cn1)NC(=O)[C@@H]1CCC(=O)N1)C(=O)N[C@@H](CCCNC(=N)N)C(=O)N1CCC[C@H]1C(=O)NCC(N)=O [GnRH, pGlu-His-Trp-Ser-Tyr-Gly-Leu-Arg-Pro-Gly-NH2]",Average time from OMP insertion to ovulation,"[1]; Group 50, 50 ng/kg/h",24 days
same,Proportion mares ovulating,[1]; [6],1 of 5 and 1/5
same,Percentage mares ovulating,"[1]; Group 50, 50 ng/kg/h",20%
same,Average time from OMP insertion to ovulation,"[1]; Group 100, 100 ng/kg/h",21.8 days
same,Proportion mares ovulating,[1]; [7],4 of 6 and 4/6
same,Percentage mares ovulating,"[1]; Group 100, 100 ng/kg/h",67%
same,Day of ovulation (x ± s.e.m.),"[2]; 1984 and 1985 combined, n=14, P < .001 compared to controls",18.6 ± 3.0
same,Day of conception (x ± s.e.m.),"[2]; 1984 and 1985 combined, n=14, P < .05 compared to controls",25.2 ± 6.0
same,Average day of ovulation earlier than the controls,[2]; data for the 2 years combined,approximately 23 days
same,Day of conception earlier than the controls,[2]; data for the 2 years combined,24 days
same,Average time from OMP insertion to ovulation,"[3]; Group 50, 50 ng/kg/h",18.5 days
same,Proportion mares ovulating,[3]; [6],2 of 5 and 2/5
same,Percentage mares ovulating,"[3]; Group 50, 50 ng/kg/h",40%
same,Average time from OMP insertion to ovulation,"[3]; Group 100, 100 ng/kg/h",17.3 days
same,Proportion mares ovulating,[3]; [7],3 of 4 and 3/4
same,Percentage mares ovulating,"[3]; Group 100, 100 ng/kg/h",75%
same,Mean LH pulse frequency,"[3]; Group 100 compared to controls, Day 21",significantly (<0.05) higher
same,LH pulse amplitude,"[3]; between the 3 groups, any of the days studied",no statistical difference
same,LH pulse frequency,"[3]; between the groups, Day 28",no difference
same,Mean daily plasma LH concentrations,[3]; both treated groups (50 and 100 ng/kg/h) compared to control mares,higher
same,LH pulse frequency,"[3]; both treated groups compared to controls, within 7 days of insertion of OMP",significantly (p<0.05) higher
same,Percentage mares ovulating,"mares in deep anoestrus; Group 50, 50 ng/kg/h",30%
same,Proportion mares ovulating,"mares in deep anoestrus; Group 50, 50 ng/kg/h",3/10
same,Percentage mares ovulating,"mares in deep anoestrus; Group 100, 100 ng/kg/h",70%
same,Proportion mares ovulating,"mares in deep anoestrus; Group 100, 100 ng/kg/h, P < .01 vs controls",7/10
same,Treated mares that ovulated during the period the OMP were functional,"[4]; 100 ng/kg/h s.c. OMP 28 days, transitional anoestrus, 1985",Eight of 9
same,Average time (day) of ovulation from commencement of the experiment (x ± s.e.m.),"[4]; 100 ng/kg/h, 1985, n=9, P<0.05 vs controls",18.6 ± 4.3 days and 18.8 ± 4.3 days
same,Mares that failed to conceive,"[4]; 100 ng/kg/h, 1985, treated group",One
same,Average day of conception from commencement of the experiment (x ± s.e.m.),"[4]; 100 ng/kg/h, 1985, P<0.05 vs controls, one mare failed to conceive",24.4 ± 8.1 days
same,Treated mares that ovulated during GnRH infusion,"[5]; 100 ng/kg/hr s.c. OMP 28 days, transitional anoestrus, 1984",Four of the 5
same,Treated mares that conceived in association with the first ovulation after insertion of the OMP,"[5]; 100 ng/kg/hr, 1984",Four of the 5
same,Day of conception (x ± s.e.m.),"[5]; 100 ng/kg/hr, 1984, n=5, after OMP insertion, p<0.01 vs controls",26.6 ± 9.7 days and 26.6 days
same,Time (day) of ovulation from commencement of the experiment (x ± s.e.m.),"[5]; 100 ng/kg/hr, 1984, n=5, p<0.01 vs controls",18.6 ± 4.1 days and 18.6 days
